What was measured:
[1] = cited from earlier work
[2] = Cy 50 mg/kg daily x4 with ATG, thymic irradiation, BMT; five subjects
Description: Intravenous cyclosporine (CYA) was given beginning on day −1 with conversion to p.o. CYA when tolerated. Donor leukocytes (DLI) were given on days +35, (10^7/kg CD3+ cells) and +56 (5×10^7/kg CD3+ cells) if no GVHD was present. Median subject age was 30 (range 20-45) years. All subjects had disease progression during salvage chemotherapy or radiation therapy. […] Chimerism analyses of weekly peripheral blood samples and pre-BMT, day +28, and day +100 bone marrow aspirate samples have been performed by variable number of tandem repeat sequence (VNTR) analysis (HLA matched BMT) or flow cytometry (HLA mismatched BMT).

O=P1(N(CCCl)CCCl)NCCCO1 (centres unmarked) [cyclophosphamide]
subjects developing a diffuse maculopapular rash ([1]; 24-72 hours following cyclophosphamide): 10-20% | subjects with some hematuria ([1]; at this dose level (50 mg/kg x4)): Approximately 50% | incidence of hemorrhagic cystitis ([1]; cyclophosphamide 50 mg/kg on days -6, -5, -4, -3): 20% | total dose at which fatal cardiac failure due to hemorrhagic necrosis occurs ([1]; total dose (7.6 grams/m^2)): ≥ 200 mg/kg | toxicities observed [2]: reversible Cy cardiotoxicity (n=1)

Reference: patent US7498023B2, “Blockade of T cell migration into epithelial GVHD target tissues as an approach to achieving anti-tumor effects against lymphohematopoietic malignancies without GVHD” (The General Hospital Corporation, priority 2000, dated 2009)
